Data reported in article PMC11678373 (Pharmaceutics, 2024).
“And” between values parts separate entries of the source, which are not always exact repeats. Equal values may be shown once. Read-outs that look alike come from different tables or passages of the source. Each block holds one compound with its values, some of them ahead of it.

Legend:
CYP2D6 = conditions: cited from earlier work
CYP3A4 = conditions: cited from earlier work
[1] = single oral REG 20 mg/kg b.w. alone (IIREG control, n = 8), mean ± SD, adapted from previous project ref 39, cited from earlier work; for AUC0–t / AUC0–∞: metabolite in plasma
CYP2C8 = conditions: cited from earlier work
[2] = Long-term stability in plasma (bioanalytical validation); format: physicochemical, rat; conditions: plasma QC samples, −20 °C storage
Experimental: The concentrations were diluted in five replicates.
Short-term and long-term stability were tested at −20 °C storage conditions and ambient temperature at processing conditions. For the short term, three cycles of freezing and thawing within three days were applied.
All met ICH acceptance criteria.

[3] = Pharmacokinetics of REG, M-2 and M-5 in rats after single oral REG with or without OLA; format: in vivo, male Wistar rats
Experimental: (§1) Healthy, 14-week-old adult male Wistar rats purchased from the Anima Sp. z o. o. SK and ViVARI s.c. (Warszawa, Poland) were used in the study. The animals were housed for one week in a temperature- and humidity-controlled room with a 12-h light/dark cycle and fed a standard diet with free access to fresh water.
(§2) This reduced the number of animals included in the experiment, which is consistent with the 3R concept. The same drugs (same manufacturer, same dose) were administered in the study group IREG+OLA, but from different batches than in the control groups. No other experimental conditions were changed.
(§3) The samples were centrifuged (2880 g, 10 min at 4 °C), and the plasma was stored at −80 °C until analyzed.
A Cortecs UPLC C18 column (2.1 × 50 mm, 1.6 μm) was used in combination with a VanGuard Acquity UPLC BEH C18 pre-column (2.1 × 5 mm, 3/Pk, Waters Corporation). The injection volume was 5 μL, the autosampler temperature was 4 °C, and the column temperature was 40 °C. The composition of mobile phase A was 0.1% aqueous formic acid solution (v/v), and phase B was acetonitrile/methanol and 0.1% aqueous formic acid solution in a ratio of 1:3 (v/v). The total run time was 5 min. The gradient was as follows: 0–0.5 min with 10% B; 0.5–3 min, 95% B; 3–4 min, 95% B; 4–4.1 min, 10% B; 4.1–5 min, 10% B. The flow rate was 0.4 mL/min. Multiple reaction monitoring (MRM) experiments using positive electrospray ionization (ESI) were performed to analyze the samples.
The following settings of the Xevo TQ-S micro mass spectrometer were used: source temperature 150 °C, desolvation temperature 600 °C, nitrogen gas flow 900 L/h, capillary voltage 3.6 kV.
(§4) The values of the pharmacokinetic parameters of OLA, REG, and M-2 and M-5 were determined by non-compartmental analysis with linear interpolation. PKanalix 2023R1 software (Lixoft, Antony, France) was used to calculate the elimination rate constant (kel), the absorption rate constant (ka), the half-life in the elimination phase (t1/2), the area under the concentration–time curve from zero to the last measurable concentration (AUC0–t), the area under the plasma concentration–time curve from zero to infinity (AUC0–∞), the apparent plasma drug clearance (Cl/F), and the apparent volume of distribution (Vd/F). The maximum plasma concentration (Cmax) and the time to reach the Cmax (tmax) were obtained directly from the measured values. All these parameters were presented as arithmetic mean ± standard deviation (SD) and subjected to statistical analysis.

CYP2C9 = conditions: cited from earlier work
[4] = Pharmacokinetics of OLA in rats after single oral OLA with or without REG; format: in vivo, male Wistar rats
Experimental: as §1, §2, §3
OLA in animal plasma samples was quantified using an Acquity 1-class PLUS ultra-high performance liquid chromatograph coupled to a Xevo TQ-S micro triple quadrupole mass spectrometer (Waters Corporation, 34 Maple Street, Milford, MA, USA). A Cortecs UPLC C18 column (2.1 × 50 mm, 1.6 µm, Waters Corporation, 34 Maple Street, Milford, MA, USA) was used for the chromatographic separation. The column temperature and injection volume were set at 40 °C and 1 µL, respectively. The mobile phase consisted of acetonitrile (eluent A) and 2 mM ammonium acetate in water (eluent B) with 0.1% 98–100% formic acid. The flow rate was kept at 0.3 mL/min. The elution gradient was as follows: 0–3 min, 5% A; 4–5 min, 95% A; 3–5 min, linear from 5% to 95% A; 5–6 min, linear from 95% to 5% A. The mass spectrometer was operated in multiple reaction monitoring mode. Two transitions were monitored for OLA and OLA-d4 as an internal standard (IS): m/z 435.1→367.1 and 435.1→281.0 (qualifier transition) for OLA and m/z 439.1→367.1 and 439.1→281.0 for IS.
as §4

P-gp = test system: P-gp; parameters: method as in earlier work; conditions: cited from earlier work
BCRP = test system: BCRP; parameters: method as in earlier work; conditions: cited from earlier work
[5] = OLA; single oral OLA 100 mg/kg b.w. alone (IIIOLA control, n = 8); mean ± SD; adapted from previous project ref 40; cited from earlier work
P-gp vesicles = test system: P-gp vesicles; parameters: method as in Deng et al. 36; conditions: ref Deng et al. 36; cited from earlier work
CYP3A4/5 = test system: CYP3A4/5; parameters: method as in PMID 28657402, PMID 27684210; conditions: cited from earlier work
[6] = cited from earlier work
P-glycoprotein = conditions: cited from earlier work
CYP2B6 = conditions: cited from earlier work
CYP3A = test system: CYP3A; parameters: method as in Jin et al. 37; conditions: competitive inhibition; ref Jin et al. 37; cited from earlier work
[7] = parameters: method as in Jin et al. 37; conditions: ref Jin et al. 37, cited from earlier work; for predicted AUC increase for (S)- and/or (R)-warfarin: via CYP inhibition
CYP2C19 = conditions: cited from earlier work
[8] = cited from earlier work; remark: listed apart in the source
[9] = co-administration of OLA and metformin in rats; cited from earlier work

stable in plasma (long-term test) [2]: ≥ 180 days
AUC0–t of metabolite, times higher during combined administration of OLA and REG ([3]; IREG+OLA vs. IIREG control): 8.86 fold
Cmax of metabolite, times higher during combined administration of OLA and REG ([3]; IREG+OLA vs. IIREG control): 7.22 fold
SMILES: CNC(=O)c1cc(Oc2ccc(NC(=O)Nc3ccc(Cl)c(C(F)(F)F)c3)c(F)c2)cc[n+]1[O-] [M-2, REG-N-oxide]
R1 value (CYP2D6): > 1.1
R1 value (CYP3A4): > 1.1
AUC0–t [1]: 9615.36 ± 2275.41 (23.7) ng × h/mL
AUC0–∞ [1]: 11,469.93 ± 2133.05 (18.6) ng × h/mL
R1 value (CYP2C8): > 1.1
R1 value (CYP2C9): > 1.1

stable in plasma (long-term test) [2]: ≥ 180 days
AUC0–t of metabolite, times higher during combined administration of OLA and REG ([3]; IREG+OLA vs. IIREG control): 17.83 fold
AUC0–∞ of metabolite, times higher during combined administration of OLA and REG ([3]; IREG+OLA vs. IIREG control): 18.82 fold
Cmax of metabolite, times higher during combined administration of OLA and REG ([3]; IREG+OLA vs. IIREG control): 16.32 fold
SMILES: NC(=O)c1cc(Oc2ccc(NC(=O)Nc3ccc(Cl)c(C(F)(F)F)c3)c(F)c2)cc[n+]1[O-] [M-5, N-desmethyl-REG-N-oxide]
AUC0–t [1]: 803.19 ± 177.02 (22.0) ng × h/mL
AUC0–∞ [1]: 847.88 ± 178.97 (21.1) ng × h/mL
R1 value (CYP2C8): > 1.1

increase of AUC0–t of OLA after administration of OLA with REG ([4]; IREG+OLA vs. IIIOLA control): 3.4 fold
increase of AUC0–t of OLA by REG ([4]; IREG+OLA vs. IIIOLA control): 241.7%
increase of AUC0–∞ of OLA after administration of OLA with REG ([4]; IREG+OLA vs. IIIOLA control): 3.4 fold
increase of AUC0–∞ of OLA by REG ([4]; IREG+OLA vs. IIIOLA control): 240.6%
increase of Cmax of OLA after administration of OLA with REG ([4]; IREG+OLA vs. IIIOLA control): 2.0 fold
increase of Cmax of OLA by REG ([4]; IREG+OLA vs. IIIOLA control): 104.9%
t0.5 ([4]; OLA, single oral OLA 100 mg/kg b.w. + REG 20 mg/kg b.w. (IREG+OLA, n = 8), mean ± SD): 3.01 ± 0.86 (28.6) h
AUC0–∞ ratio of OLA (study group/control group) ([4]; rats, OLA victim, REG perpetrator): 3.39 and 3.41
stable in plasma (long-term test) [2]: at least 181 days
inhibitor class as perpetrator towards REG, from AUC ratio ([3]; rat model, AUC ratio 3.39): moderate inhibitor
SMILES: O=C(c1cc(Cc2n[nH]c(=O)c3ccccc23)ccc1F)N1CCN(C(=O)C2CC2)CC1 [OLA, Olaparib]
IC50 (P-gp): > 10000 nM
IC50 (BCRP): > 10000 nM
AUC0–t [5]: 28.28 ± 28.16 (99.6) µg × h/mL
AUC0–∞ [5]: 28.58 ± 28.31 (99.1) µg × h/mL
Cl/F [5]: 7.84 ± 15.21 (193.9) L/h
Cmax [5]: 8.72 ± 6.80 (78.0) µg/mL
t0.5 [5]: 4.79 ± 6.06 (126.5) h
tmax [5]: 1.16 ± 0.92 (78.9) h
inhibition of atorvastatin transport (P-gp vesicles): weak inhibitor
time-dependent CYP inhibition (CYP3A4/5; OLA 10 μM): little effect
time-dependent CYP inhibition (CYP3A4/5; OLA 2–200 μM): time-dependent CYP3A4/5 inhibitor
IC50 (CYP3A4/5; reversible inhibition, OLA 17–500 μM): 119000 nM
concentration in the gastrointestinal tract ([6]; from a 400 mg dose): 3683 µM

stable in plasma (long-term test) [2]: ≥ 180 days
increase of AUC0–∞ of REG after OLA administration ([3]; IREG+OLA vs. IIREG control): 3.38 fold
increase of t0.5 of REG after OLA administration ([3]; IREG+OLA vs. IIREG control): 1.82 fold
increase of tmax of REG after OLA administration ([3]; IREG+OLA vs. IIREG control): 2.66 fold
reduction of kel of REG in the study group ([3]; IREG+OLA vs. IIREG control): 1.77 fold
t0.5 ([3]; REG, single oral REG 20 mg/kg b.w. + OLA 100 mg/kg b.w. (IREG+OLA, n = 8), mean ± SD): 11.65 ± 3.70 (31.7) h
SMILES: CNC(=O)c1cc(Oc2ccc(NC(=O)Nc3ccc(Cl)c(C(F)(F)F)c3)c(F)c2)ccn1 [REG, regorafenib]
R1 value (CYP3A4): > 1.1
Vd/F ([1]; REG): 2062.53 ± 615.85 (29.7) mL
tmax ([1]; REG): 5.8 ± 2.1 (36.9) h
R1 value (CYP2C8): > 1.1
IC50 (P-glycoprotein; in vitro, read-out: IC50): ~2000 nM
IC50 (P-glycoprotein; read-out: IC50 for P-gp inhibition): 2200 nM
R1 value (CYP2B6): > 1.1
R1 value (CYP2C9): > 1.1
Ki (CYP3A): 20700 nM
predicted effect on the AUCs of apixaban and rivaroxaban [7]: little or no effect
R1 value (CYP2C19): > 1.1
estimated duodenal concentration ([6]; 160 mg REG dose, assumed duodenal volume of 250 mL): 1.3 mM

SMILES: CNC(=O)c1ccccc1Sc1ccc2c(/C=C/c3ccccn3)n[nH]c2c1 [axitinib]
predicted AUC increase for (S)- and/or (R)-warfarin [7]: ≤ 1.2 fold

SMILES: OC(Cn1cncn1)(Cn1cncn1)c1ccc(F)cc1F [fluconazole]
increase in AUC of OLA ([8]; concomitant fluconazole): 121%
increase in Cmax of OLA ([8]; concomitant fluconazole): 14%

SMILES: CCC(C)n1ncn(-c2ccc(N3CCN(c4ccc(OCC5COC(Cn6cncn6)(c6ccc(Cl)cc6Cl)O5)cc4)CC3)cc2)c1=O (stereo not drawn) [itraconazole]
increase in AUC of OLA ([8]; concomitant itraconazole): 170%
increase in Cmax of OLA ([8]; concomitant itraconazole): 42%

SMILES: Cc1ccc(NC(=O)c2ccc(CN3CCN(C)CC3)cc2)cc1Nc1nc(-c2cccnc2)cs1 [masitinib]
Ki (CYP3A): 1300 nM

SMILES: CN(C)C(=N)N=C(N)N [metformin]
increase in metformin AUC [9]: 2.6 fold
increase in metformin Cmax [9]: 2.8 fold

SMILES: COC(=O)c1ccc2c(c1)NC(=O)/C2=C(\Nc1ccc(N(C)C(=O)CN2CCN(C)CC2)cc1)c1ccccc1 [nintedanib]
predicted AUC increase for (S)- and/or (R)-warfarin [7]: ≤ 1.2 fold

SMILES: Cc1cc(Nc2cc(N3CCN(C)CC3)nc(Sc3ccc(NC(=O)C4CC4)cc3)n2)[nH]n1 [tozasertib]
predicted AUC increase for (S)- and/or (R)-warfarin [7]: ≤ 1.2 fold

SMILES: CC(=O)Nc1cccc(-n2c(=O)n(C3CC3)c(=O)c3c(Nc4ccc(I)cc4F)n(C)c(=O)c(C)c32)c1 [trametinib]
predicted AUC increase for (S)- and/or (R)-warfarin [7]: ≤ 1.2 fold

SMILES: Clc1ccc(Nc2nnc(Cc3ccncc3)c3ccccc23)cc1 [vatalanib]
Ki (CYP3A): 200 nM
